Results from patent publication US20250197428A1, “INHIBITORS OF KIF18A AND USES THEREOF” (ACCENT THERAPEUTICS, INC., priority 2022, published 2025).
Like-named read-outs stand apart in the source and are kept apart here.

Assays:
KIF18A = KIF18A (Homo sapiens (Human), UniProt Q8NI77); test: KIF18A Biochemical Assay (ATPase, ADP-Glo)
[1] = Caco-2 permeation assay, bidirectional permeability; assay type: in vitro ADME; details: human, Caco-2, pH 7.4, 5 μM, Papp(B-A)/Papp(A-B)
Protocol: 1. Caco-2 Permeation Assay: Evaluation of the Bidirectional Permeabilities of Compounds.
Samples were analyzed through LC/MS/MS for estimating the apparent permeability coefficients (Papp) of compounds across Caco-2 cell monolayers. Caco-2 cells (American Type Culture Collection) were incubated and seeded onto HTS Transwell-96 Well Permeable Supports (Corning Corporation) for 14 days using a cell medium consisting of Dulbecco's Modified Eagle's Medium (DMEM) with high glucose and L-glutamine supplemented with 10% FBS, 1× penicillin-streptomycin mixture and 1×non-essential amino acids (NEAA). Cell monolayer integrity was measured using an automated tissue resistance measuring system (World Precision Instruments). Stock solutions of compounds and control compounds in DMSO were diluted with HBSS (10 mM HEPES, pH 7.4) to reach a final concentration of 5 μM with a final concentration of DMSO <0.1%. HBSS was then removed after 30 minutes of preincubation, and 75 μL of test compound was added to the apical compartment of the Transwell insert. The basolateral compartment was filled with 235 μL of HBSS (10 mM HEPES, pH 7.4) containing 2% BSA. Rate of drug transport in the basolateral to apical direction was obtained by adding 235 μL of test compound to the receiver plate wells (basolateral compartment) and filling with 75 μL of HBSS (10 mM HEPES, pH 7.4) containing 2% BSA. Time 0 samples were prepared by transferring 25 μL of 5 μM working solution to wells of the 96-deepwell plate containing 25 μL HBSS (10 mM HEPES and 2% BSA, pH 7.4), followed by the addition 200 μL of cold methanol containing appropriate internal standards (100 nM alprazolam, 200 nM labetalol, 200 nM caffeine and 200 nM diclofenac). After incubating at 37° C. for 2 h, 25 μL samples from donor sides (apical compartment) were transferred to a 96-well plate containing 25 μL HBSS (10 mM HEPES and 2% BSA, pH 7.4). 25 μL samples from receiver sides (basolateral compartment) were removed and transferred to a new plate containing 25 μL HBSS (10 mM HEPES, pH 7.4). 200 μL of cold methanol containing internal standards (100 nM alprazolam, 200 nM labetalol, 200 nM caffeine and 200 nM diclofenac) was added to terminate the reaction. Samples were vortexed for 5 minutes and then centrifuged at 3,220 g for 40 minutes. An aliquot of 100 μL of the supernatant is mixed with 100 μL of ultra-pure water for LC-MS/MS analysis. All incubations are performed in duplicate. Solutions were discarded from the transwell plate. 100 μL Lucifer Yellow solution (100 μM in HBSS) was added to each well of transwell insert and 300 μL of HBSS to each well of receiver. After incubating at 37° C. for 30 minutes, 80 μL was aliquotted from each well of apical and basolateral sides to a solid black plate. The plate was then read with Tecan Infinite™ M 200 (Excitation/Emission wavelength […]).
All calculations were carried out using Microsoft Excel. Peak areas were determined from extracted ion chromatograms. The leakage of Lucifer Yellow, in unit of percentage (%), can be calculated using the following equation: […]
LY leakage of <1% is acceptable to indicate the well-qualified Caco-2 monolayers. The apparent permeability coefficient (Papp), in units of centimeter per second, can be calculated for Caco-2 drug transport assays using the following equation: […]
Where VA is the volume (in mL) in the receiver well (0.235 mL for Ap→Bl flux and 0.075 mL for Bl→Ap flux), Area is the surface area of the membrane (0.143 cm^2 for HTS Transwell-96 Well Permeable Supports), and time is the total transport time in seconds. The efflux ratio can be determined using the following equation: […]
Where Papp (B-A) indicates the apparent permeability coefficient in basolateral to apical direction, and Papp (A-B) indicates the apparent permeability coefficient in apical to basolateral direction.
The recovery can be determined using the following equation: […]

OVCAR-3 cells = test: In vitro anti-proliferative activity assay in cancer cell line OVCAR-3 (CellTiter-Glo, 4- or 7-day); assay type: cell-based; details: Homo sapiens, read-out: OVCAR-3 cellular antiproliferation assay IC50

Sequence of KIF18A (Q8NI77 1-367): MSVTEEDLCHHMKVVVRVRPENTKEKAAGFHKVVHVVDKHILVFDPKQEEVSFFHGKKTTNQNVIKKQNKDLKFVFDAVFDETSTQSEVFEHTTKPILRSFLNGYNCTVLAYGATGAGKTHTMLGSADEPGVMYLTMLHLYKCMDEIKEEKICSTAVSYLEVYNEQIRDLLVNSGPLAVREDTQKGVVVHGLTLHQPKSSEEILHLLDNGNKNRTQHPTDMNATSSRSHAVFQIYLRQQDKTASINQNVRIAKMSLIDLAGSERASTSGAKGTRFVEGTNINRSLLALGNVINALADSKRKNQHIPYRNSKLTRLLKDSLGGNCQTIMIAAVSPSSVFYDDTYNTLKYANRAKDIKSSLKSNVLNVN
Sequence of KIF18A (P02550 whole entry partner): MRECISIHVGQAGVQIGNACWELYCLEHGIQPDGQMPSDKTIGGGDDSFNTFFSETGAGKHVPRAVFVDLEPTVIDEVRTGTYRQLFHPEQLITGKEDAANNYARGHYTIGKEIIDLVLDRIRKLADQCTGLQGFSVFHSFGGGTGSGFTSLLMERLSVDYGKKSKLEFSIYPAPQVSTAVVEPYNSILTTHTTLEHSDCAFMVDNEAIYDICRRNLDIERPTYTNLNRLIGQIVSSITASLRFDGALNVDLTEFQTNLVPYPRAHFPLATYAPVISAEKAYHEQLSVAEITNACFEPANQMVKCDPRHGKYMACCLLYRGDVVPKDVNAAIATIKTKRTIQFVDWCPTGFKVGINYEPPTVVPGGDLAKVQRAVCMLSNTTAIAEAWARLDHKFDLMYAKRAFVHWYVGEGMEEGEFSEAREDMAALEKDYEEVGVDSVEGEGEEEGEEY
Sequence of KIF18A (P02554 whole entry partner): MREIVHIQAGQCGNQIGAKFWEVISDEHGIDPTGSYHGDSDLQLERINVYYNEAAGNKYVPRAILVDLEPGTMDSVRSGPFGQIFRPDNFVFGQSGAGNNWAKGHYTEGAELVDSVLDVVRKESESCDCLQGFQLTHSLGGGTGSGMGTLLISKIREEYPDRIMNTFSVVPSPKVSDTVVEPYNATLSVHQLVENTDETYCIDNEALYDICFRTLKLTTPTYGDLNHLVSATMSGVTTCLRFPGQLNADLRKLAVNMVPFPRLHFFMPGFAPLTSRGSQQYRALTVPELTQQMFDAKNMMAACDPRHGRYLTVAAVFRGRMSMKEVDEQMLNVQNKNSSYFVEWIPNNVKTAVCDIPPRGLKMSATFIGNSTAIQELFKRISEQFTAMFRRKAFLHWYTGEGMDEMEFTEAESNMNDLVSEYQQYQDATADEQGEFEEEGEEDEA

SMILES	IC50 (KIF18A)	efflux ratio at 2 h, 5 μM [1]	IC50 (OVCAR-3 cells; OVCAR-3, 168 h, 7-day assay)	IC50 (OVCAR-3 cells; OVCAR-3, 96 h, 4-day assay)
COC[C@@]12CCN(c3cc(NS(=O)(=O)CCO)ccc3C(=O)Nc3cc(C)nc(N4CCC(F)(F)CC4)n3)C[C@@H]1C2 (single isomer, unassigned) [Example 49b]	< 0.1 µM	< 10	< 0.1 µM	–
Cc1ccc(NC(=O)c2ccc(NS(=O)(=O)CCO)cc2N2CC[Si](C)(C)CC2)nc1N1CCOCC1 [Example 2, 2-(4,4-dimethyl-1,4-azasilinan-1-yl)-4-((2-hydroxyethyl)sulfonamido)-N-(5-methyl-6-morpholinopyridin-2-yl)benzamide]	< 0.1 µM	< 10	–	< 0.1 µM
CC(C)(C)NS(=O)(=O)c1cccc(NC(=O)c2ccc(NS(=O)(=O)C(C)(C)C)cc2N2CC[Si](C)(C)CC2)c1 [Example 4, N-(3-(N-(tert-butyl)sulfamoyl)phenyl)-2-(4,4-dimethyl-1,4-azasilinan-1-yl)-4-((1,1-dimethylethyl)sulfonamido)benzamide]	0.5 to 1 µM	< 10	–	0.1 to 0.5 µM
Cc1cc(NC(=O)c2ccc(NS(=O)(=O)CCO)cc2N2CC[Si](C)(C)CC2)nc(N2CCOCC2)c1 [Example 5, 2-(4,4-dimethyl-1,4-azasilinan-1-yl)-4-((2-hydroxyethyl)sulfonamido)-N-(4-methyl-6-morpholinopyridin-2-yl)benzamide]	< 0.1 µM	< 10	–	< 0.1 µM
C[Si]1(C)CCN(c2cc(NS(=O)(=O)CCO)ccc2C(=O)Nc2cccc(N3CCC(F)(F)CC3)c2)CC1 [Example 6, N-(3-(4,4-difluoropiperidin-1-yl)phenyl)-2-(4,4-dimethyl-1,4-azasilinan-1-yl)-4-((2-hydroxyethyl)sulfonamido)benzamide]	< 0.1 µM	< 10	–	< 0.1 µM
C[Si]1(C)CCN(c2cc(NS(=O)(=O)CCO)ccc2C(=O)Nc2ccnc(N3CCC(F)(F)CC3)c2)CC1 [Example 7, N-(2-(4,4-difluoropiperidin-1-yl)pyridin-4-yl)-2-(4,4-dimethyl-1,4-azasilinan-1-yl)-4-((2-hydroxyethyl)sulfonamido)benzamide]	< 0.1 µM	≥ 10	–	< 0.1 µM
Cc1cc(NC(=O)c2ccc(NS(=O)(=O)CCO)cc2N2CC[Si](C)(C)CC2)nc(N2CCC(F)(F)CC2)c1 [Example 8, N-(6-(4,4-difluoropiperidin-1-yl)-4-methylpyridin-2-yl)-2-(4,4-dimethyl-1,4-azasilinan-1-yl)-4-((2-hydroxyethyl)sulfonamido)benzamide]	0.1 to 0.5 µM	< 10	–	< 0.1 µM
C[Si]1(C)CCN(c2cc(NS(=O)(=O)CCO)ccc2C(=O)Nc2ccnc(OCCC(F)(F)F)n2)CC1 [Example 10]	< 0.1 µM	≥ 10	–	0.5 to 1 µM
CC1CN(c2nccc(NC(=O)c3ccc(NS(=O)(=O)CCO)cc3N3CC[Si](C)(C)CC3)n2)CCO1 (stereo not drawn) [Example 11]	< 0.1 µM	< 10	–	< 0.1 µM
O=C(Nc1ccnc(N2CCC(F)(F)CC2)n1)c1cc2cnn(CCO)c2cc1N1CCC2(CC1)CC2 [Example 12]	0.5 to 1 µM	< 10	–	> 1 µM
C[Si]1(C)CCN(c2cc(NS(=O)(=O)CCO)ccc2C(=O)Nc2cccc(OCCC(F)(F)F)n2)CC1 [Example 16]	< 0.1 µM	< 10	–	< 0.1 µM
C[C@H]1CN(c2cccc(NC(=O)c3ccc(NS(=O)(=O)CCO)cc3N3CC[Si](C)(C)CC3)n2)CCO1 [Example 17]	< 0.1 µM	≥ 10	–	< 0.1 µM
Cc1cc(NC(=O)c2ccc(NS(C)(=O)=O)cc2N2CC[Si](C)(C)CC2)nc(N2CC(F)(F)C2)c1 [Example 20]	0.1 to 0.5 µM	< 10	–	0.1 to 0.5 µM
Cc1cc(NC(=O)c2ccc(NS(=O)(=O)CCO)cc2N2CC[Si](C)(C)CC2)nc(N2CCC3(CC3)C2)n1 [Example 21]	0.1 to 0.5 µM	< 10	–	0.1 to 0.5 µM
Cc1cc(NC(=O)c2ccc(NS(=O)(=O)CCO)cc2N2CCC3(C)C(C2)C3(F)F)nc(N2CCC(F)(F)CC2)n1 (stereo not drawn) [Example 28, 2-(7,7-difluoro-6-methyl-3-azabicyclo[4.1.0]heptan-3-yl)-N-(2-(4,4-difluoropiperidin-1-yl)-6-methylpyrimidin-4-yl)-4-((2-hydroxyethyl)sulfonamido)benzamide]	< 0.1 µM	< 10	–	0.1 to 0.5 µM
Cc1cc(NC(=O)c2ccc(NS(=O)(=O)CCO)cc2N2CCC3CC3C2)nc(N2CCC(F)(F)CC2)n1 (stereo not drawn) [Example 34]	< 0.1 µM	≥ 10	–	0.1 to 0.5 µM
Cc1cc(NC(=O)c2ccc(NS(=O)(=O)CCO)cc2N2CC[C@]3(C)C[C@@H]3C2)nc(N2CCC(F)(F)CC2)n1 [Example 35]	< 0.1 µM	< 10	–	0.1 to 0.5 µM
Cc1cc(NC(=O)c2ccc(NS(=O)(=O)CCO)cc2N2CCC3(C)CC3C2)nc(N2CCC(F)(F)CC2)n1 (stereo not drawn) [Example 37]	< 0.1 µM	< 10	–	< 0.1 µM
Cc1cc(NC(=O)c2ccc(NS(=O)(=O)CCO)cc2N2CC[C@@]3(C(F)F)C[C@H]3C2)nc(N2CCC(F)(F)CC2)c1 [Example 48, 2-((1R,6S)-6-(difluoromethyl)-3-azabicyclo[4.1.0]heptan-3-yl)-N-(6-(4,4-difluoropiperidin-1-yl)-4-methylpyridin-2-yl)-4-((2-hydroxyethyl)sulfonamido)benzamide]	< 0.1 µM	≥ 10	–	< 0.1 µM
Cc1cc(NC(=O)c2ccc(NS(C)(=O)=O)cc2N2CC[C@]3(C(F)F)C[C@@H]3C2)nc(N2CCC(F)(F)CC2)n1 [Example 54]	< 0.1 µM	< 10	0.1 to 0.5 µM	–
Cc1cc(NC(=O)c2ccc(NS(=O)(=O)NCCO)cc2N2CC[C@]3(C(F)F)C[C@@H]3C2)nc(N2CCC(F)(F)CC2)n1 [Example 56]	< 0.1 µM	≥ 10	0.1 to 0.5 µM	–
C[Si]1(C)CCN(c2cc(NS(=O)(=O)CCO)c(F)cc2NC(=O)c2ccnc(N3CCC(F)(F)CC3)n2)CC1 [Example 90]	–	< 10	0.1 to 0.5 µM	–
C[Si]1(C)CCN(c2cc(NS(=O)(=O)CCO)ccc2C(=O)Nc2ccnc(N3CCCC(C#N)C3)n2)CC1 (stereo not drawn) [Example 94]	–	< 10	–	0.1 to 0.5 µM
C[Si]1(C)CCN(c2cc(NS(=O)(=O)CCO)ccc2NC(=O)c2cccc(N3CCC(F)(F)CC3)n2)CC1 [Example 96]	–	< 10	–	< 0.1 µM
C[Si]1(C)CCN(c2cc(S(=O)(=O)NCCO)ccc2C(=O)Nc2cccc(OC[C@@H](O)C(F)(F)F)n2)CC1 [Example 131]	< 0.1 µM	–	< 0.1 µM	–
C[Si]1(C)CCN(c2cc(S(=O)(=O)NCCO)ccc2C(=O)Nc2cccc(OC[C@H](O)C(F)(F)F)n2)CC1 [Example 132]	< 0.1 µM	–	< 0.1 µM	–
Cc1cc(NC(=O)c2ccc(NS(=O)(=O)CCO)cc2N2CC[Si](C)(C)CC2)nc(N2CCC(F)(F)CC2)c1F [Example 133]	< 0.1 µM	–	0.1 to 0.5 µM	–
